From article PMC8710297, “Identification of potent SENP1 inhibitors that inactivate SENP1/JAK2/STAT signaling pathway and overcome platinum drug resistance in ovarian cancer” (Clinical and Translational Medicine, 2021)

Key:
STAT3 = assay: pSTAT3 levels in IGROV1 CR cells (immunoblotting); assay type: cell-based; conditions: Homo sapiens, IGROV-1, 48 h, read-out: IC50 (pSTAT3 levels, Figure 3C)
Procedure: FIGURE 3 Identification of UAMMC9 from UA derivatives. (A) Synthesis of UA derivatives. Reagents and conditions: (i) Ac2O, DMAP, Pyridine, r.t.; (ii) Oxalyl chloride, CH2Cl2, r.t., overnight; (iii) amines, TEA, r.t., 0.5–4 h; (iv) NaOH a.q., MeOH/THF, r.t.; (v) amines, MeOH, reflux; (vi) K2CO3, DMF, 60°C. The detail of synthesis was included in supplemental materials. (B) UAMMC9 inhibits Sentrin‐specific protease 1 (SENP1) activity in cells. (C) IGROV1 CR cells treated with indicated UAMMC9 for 48 h. Cells were then harvested and lysates were resolved on sodium dodecyl sulphate‐polyacrylamide gel electrophoresis, followed by immunoblotting for indicated proteins. (D) Cellular thermal shift assay to examine the interaction of UAMMC9 with SENP1. IGROV1 CR cells were incubated with DMSO or UAMMC9 for 4 h before treatment as in Figure 2A. (E) In vitro thermal shift assay to analyze the interactions of UAMMC9 with purified GST‐SENP1(C603A). Stability of SENP1(C603A) was analyzed by using Western blot against SENP1 antibody. […]
Figue S2. […] (B) Quantification of SENP1 in h ib iti o n by UAMMC9 in vitro and in vivo shown in A and Figure 3B . […] SE N P 1 stability wa s analyzed by using We s t e r n blot aga inst SE NP 1 antibody.
(D) Quantification of no n‐denatured SENP1 frac ti on sh own in C. (E) Quantification of th e levels of pSTAT3 as shown in Fi g u e 3C. […]

IGROV1 CR cells = assay: Drug synergy screening: SRB proliferation assay with 2 μM cisplatin; assay type: cell-based
Procedure: (A) Collection of Momordin Ic (Mc) natural compound analogues. […] Cell proliferation was determined by the sulforhodamine B (SRB) assay. […] IGROV1 CR cells were incubated with Mc at indicated concentrations for 48 h and then harvested for Western blot for indicated proteins. […] IGROV1 CR cells were incubated with UA and then treated as in C. […] Intensity of SUMOylated JAK2 was measured by Quantity One software. […] Recombinant His‐JAK2 was SUMOylated by in vitro SUMOylation assay, and then SUMOylated JAK2 proteins were incubated with or without recombinant GST‐SENP1 together with Mc for 3 h. […] In vitro assay was performed as in (F). […]

Compound: C[C@H]1[C@H](C)CC[C@]2(C(=O)NCC(=O)N(C)CCO)CC[C@]3(C)C(=CC[C@@H]4[C@@]5(C)CC[C@H](O)C(C)(C)[C@@H]5CC[C@]43C)[C@H]12 [UAMMC9]
- IC50 (STAT3): 388 nM
- IC50 of UA derivatives to inhibit resistant cells together with cisplatin (in words) (IGROV1 CR cells): lower IC50
